Experiments:
Plasmodium falciparum [1] = test: Antiplasmodial activity against chloroquine-resistant Plasmodium falciparum W2 assessed as parasitic growth inhibition incubated for 72 hrs by SYBR Green staining based fluorescence analysis; assay type: functional, organism-based; details: W2, 72 h
Plasmodium falciparum [2] = test: Antimalarial activity against chloroquine-sensitive Plasmodium falciparum 3D7 assessed as reduction in parasite growth incubated for 36 hrs by Giemsa staining based microscopic analysis; assay type: functional, organism-based; details: 3D7, 36 h
Plasmodium falciparum [3] = test: Antiplasmodial activity against Plasmodium falciparum 3D7; assay type: functional, organism-based
[4] = Cytotoxicity against African green monkey Vero cells; assay type: toxicity, cell-based; details: chlorocebus sabaeus
[5] = Cytotoxicity against African monkey Vero cells assessed as reduction in cell viability incubated for 72 hrs by MTT assay; assay type: toxicity, cell-based; details: chlorocebus sabaeus
Plasmodium falciparum [6] = test: Antimalarial activity against Plasmodium falciparum Dd2 assessed as reduction in parasitic growth incubated for 48 hrs by SYBR green assay; assay type: functional, organism-based; details: Dd2, 48 h
Plasmodium falciparum [7] = test: Antiplasmodial activity against Plasmodium falciparum K1; assay type: functional, organism-based
Plasmodium falciparum [8] = test: Antiplasmodial activity against Plasmodium falciparum 3D7 assessed as reduction in parasite growth by Lactate dehydrogenase assay; assay type: functional, organism-based
[9] = Cytotoxicity against African green monkey Vero cells assessed as reduction in cell viability incubated for 24 hrs by fluorescence based analysis; assay type: toxicity; details: African green monkey (Chlorocebus sabaeus)
Plasmodium falciparum [10] = test: Antimalarial activity against chloroquine-resistant Plasmodium falciparum W2 assessed as growth inhibition incubated for 48 hrs by flow cytometry based analysis; assay type: functional, organism-based; details: W2, 48 h
Plasmodium falciparum [11] = test: Antiplasmodial activity against chloroquine-sensitive Plasmodium falciparum 3D7 assessed as parasitic growth inhibition incubated for 72 hrs by SYBR Green staining based fluorescence analysis; assay type: functional, organism-based; details: 3D7, 72 h

C[C@H]1[C@@H](O)O[C@@H]2O[C@@]3(C)CC[C@H]4[C@H](C)CC[C@@H]1[C@@]24OO3 [ARTENIMOL]
IC50 (Plasmodium falciparum [1]): 0.001 µM
IC50 (Plasmodium falciparum [2]): 0.002 µM

Cc1ccc(C(CCN(C)C)NCC(C)Nc2ccnc3cc(Cl)ccc23)cc1 (stereo not given)
IC50 (Plasmodium falciparum [3]): 5.17 µM

CCc1nc(N)nc(N)c1-c1ccc(Cl)cc1 [PYRIMETHAMINE]
CC50 [4]: 18.1 µM

O=C(Cn1cc(COc2ccc(Cl)cc2)nn1)NCCCNc1ccnc2cc(Cl)ccc12
CC50 at 72 h [5]: 27.1 µM
IC50 (Plasmodium falciparum [2]): 90 µM

COc1ccc2nc(/C=C/c3ccc(Br)cc3)cc(NCCN(C)C)c2c1
IC50 (Plasmodium falciparum [6]): 0.04 µM

COc1ccc(Nc2ccnc3cc(Cl)ccc23)cc1
IC50 (Plasmodium falciparum [7]): 4.87 µM

Cc1cc(C(=O)NNc2ccnc3cc(Cl)ccc23)c2ccccc2n1
IC50 (Plasmodium falciparum [7]): 0.09 µM

COC(=O)/C=C/c1ccccc1Nc1ccnc2cc(Cl)ccc12
IC50 (Plasmodium falciparum [8]): 2.32 µM

COC(=O)/C=C/c1cccc(Nc2ccnc3cc(Cl)ccc23)c1
IC50 (Plasmodium falciparum [8]): 1.81 µM

CC(CNC(CCN(Cc1ccccc1)Cc1ccccc1)c1ccccc1)Nc1ccnc2cc(Cl)ccc12 (stereo not given)
IC50 (Plasmodium falciparum [3]): 2.69 µM

COc1ccc2nc(/C=C/c3ccc([N+](=O)[O-])cc3)cc(NC3CCCCC3)c2c1
IC50 (Plasmodium falciparum [6]): 0.171 µM

O=C1c2ccc(N3CCCCC3)cc2C(=O)N1CCCCCCNc1ccnc2cc(Cl)ccc12
IC50 at 24 h [9]: 25.5 µM
IC50 (Plasmodium falciparum [10]): 0.012 µM

O=Cc1cc(OCc2cn(CCCNc3ccnc4cc(Cl)ccc34)nn2)ccc1Br
IC50 (Plasmodium falciparum [1]): 7.09 µM
IC50 (Plasmodium falciparum [11]): 6.29 µM

CC(CNC(CCN1CCOCC1)c1ccccc1)Nc1ccnc2cc(Cl)ccc12 (stereo not given)
IC50 (Plasmodium falciparum [3]): 2.94 µM

COc1ccc2nc(/C=C/c3ccc([N+](=O)[O-])cc3)cc(N3CCOCC3)c2c1
IC50 (Plasmodium falciparum [6]): > 10 µM

COc1ccc2nc(/C=C/c3ccc([N+](=O)[O-])cc3)cc(N3CCN(C)CC3)c2c1
IC50 (Plasmodium falciparum [6]): 0.452 µM

COc1ccc(C(CCN(Cc2ccccc2)Cc2ccccc2)NCC(C)Nc2ccnc3cc(Cl)ccc23)cc1 (stereo not given)
IC50 (Plasmodium falciparum [3]): 2.4 µM

CCN(CC)CCC(NCC(C)Nc1ccnc2cc(Cl)ccc12)c1ccccc1 (stereo not given)
IC50 (Plasmodium falciparum [3]): 3.84 µM

O=C(O)/C=C/c1ccc(Nc2ccnc3cc(Cl)ccc23)cc1
IC50 (Plasmodium falciparum [8]): 18.5 µM

O=C(Cn1cc(COc2ccc(Cl)cc2)nn1)NCCNc1ccnc2cc(Cl)ccc12
CC50 at 72 h [5]: 28.9 µM
IC50 (Plasmodium falciparum [2]): 0.04 µM

O=C(Cn1cc(COc2ccc(Br)cc2)nn1)NCCCCCCNc1ccnc2cc(Cl)ccc12
CC50 at 72 h [5]: 112 µM
IC50 (Plasmodium falciparum [2]): 0.307 µM

O=C(Cn1cc(-c2ccccc2)nn1)NCCCNc1ccnc2cc(Cl)ccc12
CC50 at 72 h [5]: 41.5 µM
IC50 (Plasmodium falciparum [2]): 0.137 µM

O=C(Cn1cc(COc2ccc(Br)cc2)nn1)NCCCNc1ccnc2cc(Cl)ccc12
CC50 at 72 h [5]: 75.5 µM
IC50 (Plasmodium falciparum [2]): 38.8 µM

O=C1c2ccc(N3CCCCC3)cc2C(=O)N1CCCNc1ccnc2cc(Cl)ccc12
IC50 at 24 h [9]: 55.8 µM
IC50 (Plasmodium falciparum [10]): 0.176 µM

O=C1c2ccc(N3CCOCC3)cc2C(=O)N1CCCNc1ccnc2cc(Cl)ccc12
IC50 at 24 h [9]: 222 µM
IC50 (Plasmodium falciparum [10]): 0.118 µM

C=C[C@H]1CN2CC[C@H]1C[C@H]2[C@H](O)c1ccnc2ccc(OC)cc12 [QUININE]
IC50 (Plasmodium falciparum [7]): 0.83 µM
IC50 (Plasmodium falciparum [1]): 0.504 µM

O=C(Cn1cc(COc2ccc(Cl)cc2)nn1)NCCCCNc1ccnc2cc(Cl)ccc12
CC50 at 72 h [5]: 10.9 µM
IC50 (Plasmodium falciparum [2]): 92.8 µM

Cc1ccc(OCc2cn(CC(=O)NCCCCNc3ccnc4cc(Cl)ccc34)nn2)cc1
CC50 at 72 h [5]: 5.02 µM
IC50 (Plasmodium falciparum [2]): 83.5 µM

N=C(N=C(N)N)SCCCNc1ccnc2cc(C(F)(F)F)ccc12
CC50 [4]: > 10.6 µM

O=C(NNc1ccnc2cc(Cl)ccc12)c1cc(-c2ccccc2)nc2ccccc12
IC50 (Plasmodium falciparum [7]): 0.6 µM

CCOC(=O)/C=C/c1cccc(Nc2ccnc3cc(Cl)ccc23)c1
IC50 (Plasmodium falciparum [8]): 14.4 µM

O=C(Cn1cc(COc2ccc(Cl)cc2)nn1)NCCCCCCNc1ccnc2cc(Cl)ccc12
CC50 at 72 h [5]: 7.41 µM
IC50 (Plasmodium falciparum [2]): 263 µM

COc1ccc2nc(/C=C/c3ccc([N+](=O)[O-])cc3)cc(N3CCCCC3)c2c1
IC50 (Plasmodium falciparum [6]): > 10 µM

CCN(CC)CCC(NCC(C)Nc1ccnc2cc(Cl)ccc12)c1ccc(C)cc1 (stereo not given)
IC50 (Plasmodium falciparum [3]): 5.27 µM

Cc1ccc(C(CCN(Cc2ccccc2)Cc2ccccc2)NCC(C)Nc2ccnc3cc(Cl)ccc23)cc1 (stereo not given)
IC50 (Plasmodium falciparum [3]): 2.59 µM

COc1ccc2nc(/C=C/c3ccc([N+](=O)[O-])cc3)cc(Nc3ccccc3)c2c1
IC50 (Plasmodium falciparum [6]): 0.509 µM

COC(=O)/C=C/c1ccc(Nc2ccnc3cc(Cl)ccc23)cc1
IC50 (Plasmodium falciparum [8]): 3.22 µM

N=C(N=C(N)N)SCCNc1ccnc2cc(C(F)(F)F)ccc12
CC50 [4]: > 10.9 µM

N=C(N=C(N)N)SCCCCNc1ccnc2cc(Cl)ccc12
CC50 [4]: > 11 µM

O=Cc1cc(OCc2cn(CCNc3ccnc4cc(Cl)ccc34)nn2)ccc1Br
IC50 (Plasmodium falciparum [1]): 5.07 µM
IC50 (Plasmodium falciparum [11]): 4.3 µM

N=C(N=C(N)N)SCCCCNc1ccnc2cc(C(F)(F)F)ccc12
CC50 [4]: > 10.2 µM

N=C(N=C(N)N)SCCNc1ccnc2cc(Cl)ccc12
CC50 [4]: > 11.8 µM

O=C(/C=C/c1cccc(Nc2ccnc3cc(Cl)ccc23)c1)OC1CCCCC1
IC50 (Plasmodium falciparum [8]): 16.4 µM

O=Cc1cc(OCc2cn(-c3ccnc4ccc(Cl)cc34)nn2)ccc1Br
IC50 (Plasmodium falciparum [1]): 7.39 µM
IC50 (Plasmodium falciparum [11]): 6.19 µM

COC(=O)/C=C/c1ccccc1Nc1ccnc2cc(OC)ccc12
IC50 (Plasmodium falciparum [8]): 15.3 µM

COc1ccc(NNc2ccnc3cc(Cl)ccc23)cc1
IC50 (Plasmodium falciparum [7]): 3.48 µM

COc1ccc2nc(/C=C/c3ccc([N+](=O)[O-])cc3)cc(N3CCCC3)c2c1
IC50 (Plasmodium falciparum [6]): 0.493 µM

O=Cc1ccc(OCc2cn(CC(=O)NCCCNc3ccnc4cc(Cl)ccc34)nn2)cc1
CC50 at 72 h [5]: 12.2 µM
IC50 (Plasmodium falciparum [2]): 0.91 µM

COc1ccc(C(=O)NNc2ccnc3cc(Cl)ccc23)cc1
IC50 (Plasmodium falciparum [7]): 1.13 µM

O=C1c2cccc(N3CCOCC3)c2C(=O)N1CCNc1ccnc2cc(Cl)ccc12
IC50 at 24 h [9]: 28.6 µM
IC50 (Plasmodium falciparum [10]): 0.18 µM

O=C1c2ccc(N3CCCCC3)cc2C(=O)N1CCNc1ccnc2cc(Cl)ccc12
IC50 at 24 h [9]: 28.8 µM
IC50 (Plasmodium falciparum [10]): 0.163 µM

O=Cc1cc(OCc2cn(CCN3CCN(c4ccnc5cc(Cl)ccc45)CC3)nn2)ccc1Br
IC50 (Plasmodium falciparum [1]): 8.26 µM
IC50 (Plasmodium falciparum [11]): 8.34 µM

O=C(Cn1cc(COc2ccc(Br)cc2)nn1)NCCNc1ccnc2cc(Cl)ccc12
CC50 at 72 h [5]: 78.2 µM
IC50 (Plasmodium falciparum [2]): 0.04 µM

CC1(C)OB(c2ccc(OCc3cn(CCCNc4ccnc5cc(Cl)ccc45)nn3)cc2C=O)OC1(C)C
IC50 (Plasmodium falciparum [1]): 4.64 µM
IC50 (Plasmodium falciparum [11]): 5.18 µM

O=C(Cn1cc(COc2ccccc2)nn1)NCCCNc1ccnc2cc(Cl)ccc12
CC50 at 72 h [5]: 40.6 µM
IC50 (Plasmodium falciparum [2]): 180 µM

CC(C)(C)NC(=O)/C=C/c1cccc(Nc2ccnc3cc(Cl)ccc23)c1
IC50 (Plasmodium falciparum [8]): 14.8 µM

O=[N+]([O-])c1ccc(NNc2ccnc3cc(Cl)ccc23)cc1
IC50 (Plasmodium falciparum [7]): 3.26 µM

O=[N+]([O-])c1ccc(Nc2ccnc3cc(Cl)ccc23)cc1
IC50 (Plasmodium falciparum [7]): 5.51 µM

Cc1ccc(OCc2cn(CC(=O)NCCCNc3ccnc4cc(Cl)ccc34)nn2)cc1
CC50 at 72 h [5]: > 208 µM
IC50 (Plasmodium falciparum [2]): 91.9 µM

Cc1ccc(C(CCN2CCOCC2)NCC(C)Nc2ccnc3cc(Cl)ccc23)cc1 (stereo not given)
IC50 (Plasmodium falciparum [3]): 2.94 µM

OB1OCc2ccc(OCc3cn(-c4ccnc5ccc(Cl)cc45)nn3)cc21
IC50 (Plasmodium falciparum [1]): 5.22 µM
IC50 (Plasmodium falciparum [11]): 4.87 µM

CCN(CC)CCC(NCC(C)Nc1ccnc2cc(Cl)ccc12)c1ccc(OC)cc1 (stereo not given)
IC50 (Plasmodium falciparum [3]): 2.41 µM

CC(CNC(CCN(C)C)c1ccccc1)Nc1ccnc2cc(Cl)ccc12 (stereo not given)
IC50 (Plasmodium falciparum [3]): 3.43 µM

O=C1c2cccc(N3CCCCC3)c2C(=O)N1CCCNc1ccnc2cc(Cl)ccc12
IC50 at 24 h [9]: 55.8 µM
IC50 (Plasmodium falciparum [10]): 0.162 µM

COc1ccc(C(CCN(C)C)NCC(C)Nc2ccnc3cc(Cl)ccc23)cc1 (stereo not given)
IC50 (Plasmodium falciparum [3]): 8.25 µM

COc1ccc(C(CCN2CCOCC2)NCC(C)Nc2ccnc3cc(Cl)ccc23)cc1 (stereo not given)
IC50 (Plasmodium falciparum [3]): 3.89 µM

Cc1ccc(C(=O)NNc2ccnc3cc(Cl)ccc23)cc1
IC50 (Plasmodium falciparum [7]): 0.92 µM

COc1ccc2nc(/C=C/c3ccc([N+](=O)[O-])cc3)cc(N3CCN(CCO)CC3)c2c1
IC50 (Plasmodium falciparum [6]): 0.672 µM

CC1(C)OB(c2ccc(OCc3cn(-c4ccnc5ccc(Cl)cc45)nn3)cc2C=O)OC1(C)C
IC50 (Plasmodium falciparum [1]): 6.19 µM
IC50 (Plasmodium falciparum [11]): 6.49 µM

O=C1c2ccc(N3CCOCC3)cc2C(=O)N1CCNc1ccnc2cc(Cl)ccc12
IC50 at 24 h [9]: 28.6 µM
IC50 (Plasmodium falciparum [10]): 0.37 µM

CC1(C)OB(c2ccc(OCc3cn(CCNc4ccnc5cc(Cl)ccc45)nn3)cc2C=O)OC1(C)C
IC50 (Plasmodium falciparum [1]): 6.23 µM
IC50 (Plasmodium falciparum [11]): 7.37 µM

COc1ccc2nc(/C=C/c3cccs3)cc(NCCN(C)C)c2c1
IC50 (Plasmodium falciparum [6]): 0.096 µM

O=C1c2cccc(N3CCOCC3)c2C(=O)N1CCCNc1ccnc2cc(Cl)ccc12
IC50 at 24 h [9]: 222 µM
IC50 (Plasmodium falciparum [10]): 0.276 µM

O=C1c2cccc(N3CCCCC3)c2C(=O)N1CCNc1ccnc2cc(Cl)ccc12
IC50 at 24 h [9]: 28.8 µM
IC50 (Plasmodium falciparum [10]): 0.158 µM

— ChEMBL document CHEMBL5344418, “Recent developments in antimalarial activities of 4-aminoquinoline derivatives” (Eur J Med Chem, 2023)
